In the first assay the target is T1, HCV polymerase (Hepatitis C virus genotype 1b, UniProt Q9WMX2).
T1 construct: (His)6 (C)
In words: biochemical. The note with it: NS5B polymerase IC50 μM, polymerase assay of Biological Example 1.
As to `CCOP(C)(=O)CCCN(c1nc2oc(-c3ccc(C)cc3)c(C(=O)NC)c2cc1C1CC1)S(C)(=O)=O` (stereo not shown) [Example 23.99992, ethyl 3-(N-(5-cyclopropyl-3-(methylcarbamoyl)-2-p-tolylfuro[2,3-b]pyridin-6-yl)methylsulfonamido)propyl (methyl)phosphinate], the IC50 (usually the midpoint of a concentration-inhibition curve) turned out to be 0.007 µM.

Still in this assay, the particulars now being: polymerase assay of Biological Example 1; read-out: NS5B polymerase IC50.
With `CNC(=O)c1c(-c2ccc(F)cc2)oc2nc(N(C)S(C)(=O)=O)c(C(C)=O)cc12` [Example 10, 5-acetyl-2-(4-fluorophenyl)-N-methyl-6-(N-methylmethylsulfonamido)furo[2,3-b]pyridine-3-carboxamide], the half-maximal inhibitory concentration (IC50) worked out at 0.467 µM.

Regarding `CNC(=O)c1c(-c2ccc(C)cc2)oc2nc(N(CCCC3(CC(=O)O)CCOCC3)S(C)(=O)=O)c(C3CC3)cc12` [Example 48, 2-(4-(3-(N-(5-cyclopropyl-3-(methylcarbamoyl)-2-p-tolylfuro[2,3-b]pyridin-6-yl)methylsulfonamido)propyl)tetrahydro-2H-pyran-4-yl)acetic acid], the concentration for half-maximal inhibition (IC50) was 0.008 µM.

Consider `CNC(=O)c1c(-c2ccc(F)cc2)oc2nc(N(C)S(C)(=O)=O)c(CCCC(O)CO)cc12` (stereo not shown) [Example 4.92, 5-(4,5-dihydroxypentyl)-2-(4-fluorophenyl)-N-methyl-6-(N-methylmethylsulfonamido)furo[2,3-b]pyridine-3-carboxamide], for which the IC50 was 0.223 µM.

Regarding `CNC(=O)c1c(-c2ccc(C)cc2)oc2nc(N(CCCBr)S(C)(=O)=O)c(C3CC3)cc12` [Example 29.999, 6-(N-(3-bromopropyl)methylsulfonamido)-5-cyclopropyl-N-methyl-2-p-tolylfuro[2,3-b]pyridine-3-carboxamide], the 50% inhibitory concentration (IC50) came to 0.004 µM.

For `CNC(=O)c1c(-c2ccc(C)cc2)oc2nc(N(CCOCCC3(C(=O)O)CCOCC3)S(C)(=O)=O)c(C3CC3)cc12` [Example 29.99995, 4-(2-(2-(N-(5-cyclopropyl-3-(methylcarbamoyl)-2-p-tolylfuro[2,3-b]pyridin-6-yl)methylsulfonamido)ethoxy)ethyl)tetrahydro-2H-pyran-4-carboxylic acid], the IC50 stood at 0.032 µM.

In the case of `C=CCCCN(c1nc2oc(-c3ccc(C)cc3)c(C(=O)NC)c2cc1C1CC1)S(C)(=O)=O` [Example 29.99, 5-cyclopropyl-N-methyl-6-(N-(pent-4-enyl)methylsulfonamido)-2-p-tolylfuro[2,3-b]pyridine-3-carboxamide], the IC50 is 0.014 µM.

In the case of `CNC(=O)c1c(-c2ccc(C)cc2)oc2nc(N(CCCc3nn[nH]n3)S(C)(=O)=O)c(C3CC3)cc12` [Example 29.92, 6-(N-(3-(2H-tetrazol-5-yl)propyl)methylsulfonamido)-5-cyclopropyl-N-methyl-2-p-tolylfuro[2,3-b]pyridine-3-carboxamide], the IC50 came to 0.002 µM.

Turning to `CCc1cc2c(C(=O)NC)c(-c3ccc(F)cc3)oc2nc1N(CCCO)S(C)(=O)=O` [Example 23.2, 5-ethyl-2-(4-fluorophenyl)-6-(N-(3-hydroxypropyl)methylsulfonamido)-N-methylfuro[2,3-b]pyridine-3-carboxamide], the IC50 was 0.144 µM.

Consider `CNC(=O)c1c(-c2ccc(C)cc2)oc2nc(N(CCC[C@H](C)C(=O)N[C@@H](CO)Cc3ccccc3)S(C)(=O)=O)c(C3CC3)cc12` [Example 47.2], for which the half-maximal inhibitory concentration (IC50) is 0.058 µM.

On to `C=CCCN(c1nc2oc(-c3ccc(F)cc3)c(C(=O)NC)c2cc1I)S(C)(=O)=O` [Example 18.3, 6-(N-(but-3-enyl)methylsulfonamido)-2-(4-fluorophenyl)-5-iodo-N-methylfuro[2,3-b]pyridine-3-carboxamide], for which the IC50 was determined as 0.103 µM.

As to `CCc1cc2c(C(=O)NC)c(-c3ccc(F)cc3)oc2nc1N(CCCCOc1ccccc1OC)S(C)(=O)=O` [Example 22.1, 5-ethyl-2-(4-fluorophenyl)-6-(N-(4-(2-methoxyphenoxy)butyl)methylsulfonamido)-N-methylfuro[2,3-b]pyridine-3-carboxamide], the half-maximal inhibitory concentration (IC50) came to 0.034 µM.

Turning to `CN(c1nc2oc(-c3ccc(F)cc3)c(C(N)=O)c2cc1C1CC1)S(C)(=O)=O` [Example 2.6], the IC50 was 0.297 µM.

For the molecule `CCc1cc2c(C(=O)NC)c(-c3ccc(F)cc3)oc2nc1N(CCCS(=O)(=O)CC)S(C)(=O)=O` [Example 23.992, 5-ethyl-6-(N-(3-(ethylsulfonyl)propyl)methylsulfonamido)-2-(4-fluorophenyl)-N-methylfuro[2,3-b] pyridine-3-carboxamide], the IC50 came out at 0.067 µM.

For `CNC(=O)c1c(-c2ccc(F)cc2)oc2nc(N(C)S(C)(=O)=O)c(CCCC(C)O)cc12` (stereo not shown) [Example 4.93, 2-(4-fluorophenyl)-5-(4-hydroxypentyl)-N-methyl-6-(N-methylmethylsulfonamido)furo[2,3-b]pyridine-3-carboxamide], the IC50 was 0.216 µM.

`CCOC(=O)CCCCc1cc2c(C(=O)NC)c(-c3ccc(F)cc3)oc2nc1N(C)S(C)(=O)=O` [Example 3, Ethyl 5-(2-(4-fluorophenyl)-3-(methylcarbamoyl)-6-(N-methylmethylsulfonamido)furo[2,3-b]pyridin-5-yl)pentanoate]: the IC50 came out at 0.034 µM.

With `CCc1cc2c(C(=O)NC)c(-c3ccc(F)cc3)oc2nc1N(CCC1CCN(C(=O)OC(C)(C)C)CC1)S(C)(=O)=O` [Example 21.995, tert-butyl 4-(2-(N-(5-ethyl-2-(4-fluorophenyl)-3-(methylcarbamoyl)furo[2,3-b]pyridin-6-yl)methylsulfonamido)ethyl)piperidine-1-carboxylate], the half-maximal inhibitory concentration (IC50) was 0.155 µM.

For `CCc1cc2c(C(=O)NC)c(-c3ccc(F)cc3)oc2nc1N(CCCC#N)S(C)(=O)=O` [Example 21.991, 6-(N-(3-cyanopropyl)methylsulfonamido)-5-ethyl-2-(4-fluorophenyl)-N-methylfuro[2,3-b]pyridine-3-carboxamide], the IC50 was 0.074 µM.

As for `CNC(=O)c1c(-c2ccc(C)cc2)oc2nc(N(CCCC(C)(CCOC)C(=O)O)S(C)(=O)=O)c(C3CC3)cc12` (stereo not shown) [Example 42.1, 5-(N-(5-cyclopropyl-3-(methylcarbamoyl)-2-p-tolylfuro[2,3-b]pyridin-6-yl)methylsulfonamido)-2-(2-methoxyethyl)-2-methylpentanoic acid], the IC50 is 0.003 µM.

On to `CNC(=O)c1c(-c2ccc(F)cc2)oc2nc(N(C)S(C)(=O)=O)c(CCCC(=O)N3CCC[C@H]3C(=O)OC)cc12` [Example 4.1, (S)-methyl 1-(4-(2-(4-fluorophenyl)-3-(methylcarbamoyl)-6-(N-methylmethylsulfonamido)furo[2,3-b]pyridin-5-yl)butanoyl)pyrrolidine-2-carboxylate], for which the IC50 was 0.112 µM.

In the case of `CNC(=O)c1c(-c2ccc(F)cc2)oc2nc(N(CCCN3CCNC3=O)S(C)(=O)=O)c(I)cc12` [Example 18.91, 2-(4-fluorophenyl)-5-iodo-N-methyl-6-(N-(3-(2-oxoimidazolidin-1-yl)propyl)methylsulfonamido)furo[2,3-b]pyridine-3-carboxamide], the IC50 is 0.133 µM.

For `CNC(=O)c1c(-c2ccc(C)cc2)oc2nc(N(CCCCCCCCC(=O)O)S(C)(=O)=O)c(C3CC3)cc12` [Example 29.992, 9-(N-(5-cyclopropyl-3-(methylcarbamoyl)-2-p-tolylfuro[2,3-b]pyridin-6-yl)methylsulfonamido) nonanoic acid], the half-inhibitory concentration (IC50) turned out to be 0.007 µM.

Consider `C=CCCN(c1nc2oc(-c3ccc(C)cc3)c(C(=O)NC)c2cc1C1CC1)S(C)(=O)=O` [Example 29.98, 6-(N-(but-3-enyl)methylsulfonamido)-5-cyclopropyl-N-methyl-2-p-tolylfuro[2,3-b]pyridine-3-carboxamide], for which the half-maximal inhibitory concentration (IC50) was found to be 0.017 µM.

`CNC(=O)c1c(-c2ccc(C)c(F)c2)oc2nc(N(CCCCC(=O)O)S(C)(=O)=O)c(C3CC3)cc12` [Example 29.999999, 5-(N-(5-cyclopropyl-2-(3-fluoro-4-methylphenyl)-3-(methylcarbamoyl)furo[2,3-b]pyridin-6-yl)methylsulfonamido) pentanoic acid]: the concentration for half-maximal inhibition (IC50) turned out to be 0.002 µM.

Turning to `CNC(=O)c1c(-c2ccc(C)cc2)oc2nc(N(CCC[C@H](COC)C(=O)N3C(=O)OC[C@@H]3Cc3ccccc3)S(C)(=O)=O)c(C3CC3)cc12` [Example 47.72], the half-maximal inhibitory concentration (IC50) amounted to 0.006 µM.

In the case of `CNC(=O)c1c(-c2ccc(F)cc2)oc2nc(N(CCN(C)S(C)(=O)=O)S(C)(=O)=O)c(I)cc12` [Example 23.996, 2-(4-fluorophenyl)-5-iodo-N-methyl-6-(N-(2-(N-methylmethylsulfonamido)ethyl)methylsulfonamido) furo[2,3-b]pyridine-3-carboxamide], the IC50 was found to be 0.242 µM.

Regarding `C=C1OCCN(S(C)(=O)=O)c2nc3oc(-c4ccc(F)cc4)c(C(=O)NC)c3cc21` [Example 36.1, 2-(4-Fluoro-phenyl)-9-methanesulfonyl-5-methylene-5,7,8,9-tetrahydro-1,6-dioxa-9,10-diaza-cyclohepta[f]indene-3-carboxylic acid methylamide], the IC50 was 0.046 µM.

On to `CNC(=O)c1c(-c2ccc(C)cc2)oc2nc(N(CCCCC(=O)NCCCC(=O)O)S(C)(=O)=O)c(C3CC3)cc12` [Example 29.99999, 4-(5-(N-(5-cyclopropyl-3-(methylcarbamoyl)-2-p-tolylfuro[2,3-b]pyridin-6-yl)methylsulfonamido)pentanamido)butanoic acid], for which the IC50 came out at 0.021 µM.

In the case of `CNC(=O)c1c(-c2ccc(C)cc2)oc2nc(N(CCCCO)S(C)(=O)=O)c(C3CC3)cc12` [Example 23.99994, 5-cyclopropyl-6-(N-(4-hydroxybutyl)methylsulfonamido)-N-methyl-2-p-tolylfuro[2,3-b]pyridine-3-carboxamide], the IC50 is 0.003 µM.

`C=CCc1cc2c(C(=O)NC)c(-c3ccc(F)cc3)oc2nc1N(C)S(C)(=O)=O` [Example 4.2, 5-allyl-2-(4-fluorophenyl)-N-methyl-6-(N-methylmethylsulfonamido)furo[2,3-b]pyridine-3-carboxamide]: the IC50 was 0.128 µM.

On to `CNC(=O)c1c(-c2ccc(C)cc2)oc2nc(N(CCOCC(C)(C)C(=O)O)S(C)(=O)=O)c(C3CC3)cc12` [Example 41, 3-(2-(N-(5-cyclopropyl-3-(methylcarbamoyl)-2-p-tolylfuro[2,3-b]pyridin-6-yl)methylsulfonamido)ethoxy)-2,2-dimethylpropanoic acid], for which the IC50 stood at 0.003 µM.

The record behind these values is US20120015907A1, “Furopyridine compounds and uses thereof” (NOVARTIS AG, priority 2010, published 2012).
